The nature of series [1]: In vitro rat hepatocytes clearance assay. In kind it is in vitro ADME. As for the experimental part: In Vitro Rat/Human Hepatocytes Clearance Assay
Rat hepatocytes in male gender and human hepatocytes in mixed gender were obtained from commercial vendors (e.g., BioreclamationIVT) and stored at −150° C. prior to use. 10 mM stock solutions of tested compounds were prepared in DMSO. Thawing medium and supplement incubation medium (serum-free) were placed in a 37° C. water bath for at least 15 minutes prior to use. Stock solutions were diluted to 100 μM by combining 198 μL acetonitrile and 2 μL of 10 mM stock solution.
Vials of cryopreserved hepatocytes were removed from storage, ensured that vials remain at cryogenic temperatures. The vials were thawed in a 37° C. water bath with gently shaking. Vials were kept in a water bath until all ice crystals had dissolved and were no longer visible. Vials were sprayed with 70% ethanol before being transferred to a biosafety cabinet. And then the contents were poured into the 50 mL thawing medium conical tube. Vials were centrifuged at 100 g for 10 minutes at room temperature. Thawing medium was aspirated and hepatocytes were resuspended with serum-free incubation medium to yield ^˜1.5×10^6 cells/mL.
Cell viability and density were counted using a Trypan Blue exclusion, and then cells were diluted with serum-free incubation medium to a working cell density of 1×10^6 viable cells/ml. A portion of the hepatocytes at 1×10^6 viable cells/mL was boiled for 10 min prior to adding to the plate as negative control to eliminate the enzymatic activity so that little or no substrate turnover should be observed. The inactivated hepatocytes were used to prepare negative samples, which were used to exclude the misleading factor that resulted from instability of chemical itself.
Aliquots of 247.5 μL hepatocytes were dispensed into each well of a 96-well non-coated plate. The plate was placed in the incubator on an orbital shaker for approximately 10 minutes. Aliquots of 2.5 μL of the 100 μM test compounds were added into respective wells of the non-coated 96-well plate to start the reaction. This assay was performed in duplicate. The plate was incubated in the incubator on an orbital shaker for the designed time points. 20 μL of contents were transferred and mixed with 6 volumes (120 μL) of cold acetonitrile with internal standard to terminate the reaction at time points of 5, 15, 30, 45, 60, 80 and 100 minutes. Samples were centrifuges for 20 minutes at 4000 g and aliquots of 100 μl of the supernatants were used for LC-MS/MS analysis for measurement of test compounds.
In vitro hepatocyte clearance was estimated based on determination of elimination half-life (T1/2) of compounds disappearance from their initial concentrations. Peak area ratios of each compound (test or control) to IS was calculated. Ln (% Control) versus Incubation Time (min) curve was plotted, and the slope of a linear fitting line was calculated. Drug elimination rate constant k (min-1), T1/2 (min), and in vitro intrinsic clearance CLint (μL/min/E6) was calculated according to the following equations: k=−slope T1/2=0.693/k CLint=k/Chep • Where Chep (cells×μL-1) is the cell concentration in the incubation system. Procedure for Log D Determination

In series [2] the target is T1, BTK(WT) in HEK293-BTK(WT) cells (Homo sapiens, UniProt Q06187).
T1 construct: Full-length cDNAs of BTK containing C481S mutation was generated by mutagenesis; expressed in transfected cells
Nature of the series: HEK293-BTK(WT) p-BTK ELISA. It counts as cell-based. The note with it: 1.5 hour. As for the experimental part: (§1) The mutated BTK cDNAs were confirmed by sequencing. […] The transfected cells were selected in 2 μg/mL of puromycin. Stable polyclonal cell lines were confirmed by WB and used for further study. […] All the cells were maintained in a humidified incubator at 37° C. with 5% CO2.
(§2) The test compounds were added to the cells and cells were incubated for 1.5 hour at 37° C., 5% CO2. […] The plate was read on a Multiscan Spectrum reader set to 450 nm wavelengths. The data were processed in Graph Pad Prism software.
For orientation: An ELISA detects its analyte on a solid surface through an enzyme-linked reagent.

The target in series [3] is T2, BTK-C481S in HEK293-BTK(C481S) cells (Homo sapiens, UniProt Q06187, C481S).
T2 construct: Full-length cDNAs of BTK containing C481S mutation was generated by mutagenesis; expressed in transfected cells
T2 sequence (Q06187 whole entry C481S): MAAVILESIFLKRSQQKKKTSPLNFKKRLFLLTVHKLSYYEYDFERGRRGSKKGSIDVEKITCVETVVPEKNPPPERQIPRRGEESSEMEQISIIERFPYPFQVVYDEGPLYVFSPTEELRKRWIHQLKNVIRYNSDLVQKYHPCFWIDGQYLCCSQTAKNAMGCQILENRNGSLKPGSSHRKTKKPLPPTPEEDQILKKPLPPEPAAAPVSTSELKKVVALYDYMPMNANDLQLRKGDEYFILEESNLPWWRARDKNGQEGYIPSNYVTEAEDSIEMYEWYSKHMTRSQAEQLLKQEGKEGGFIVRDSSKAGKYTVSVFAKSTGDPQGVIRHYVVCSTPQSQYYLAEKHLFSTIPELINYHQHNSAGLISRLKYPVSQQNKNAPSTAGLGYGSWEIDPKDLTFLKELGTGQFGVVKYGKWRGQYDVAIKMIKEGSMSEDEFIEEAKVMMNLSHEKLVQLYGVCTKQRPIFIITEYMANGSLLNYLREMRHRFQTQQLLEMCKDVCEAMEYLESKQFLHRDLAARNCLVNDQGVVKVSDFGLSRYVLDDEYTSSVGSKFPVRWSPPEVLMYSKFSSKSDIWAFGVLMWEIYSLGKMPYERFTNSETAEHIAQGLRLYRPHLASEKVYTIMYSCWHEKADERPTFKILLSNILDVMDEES
In words: HEK293-BTK(C481S) p-BTK ELISA. It counts as cell-based. The conditions noted are these: 1.5 hour. As for the experimental part: as §1, §2

Series [4] in a line: Protein binding in human plasma by equilibrium dialysis. It counts as in vitro ADME. The conditions noted are these: 18 hours at 37° C.; for fraction unbound at 18 h, 5 μM: human, plasma, pH 7.4, human plasma, read-out: hPPB (fu %); for hPPB (fu %): human plasma, 5 μM, fraction unbound. As for the experimental part: [formula] DF means the dilution factor. Procedure for Protein Binding Measurements in Human Plasma by Using Equilibrium Dialysis
Add 597 μL of blank plasma into each vial of a new plastic plate or separate plastic tube by addition of 3 μL of the working solution of each cassette, vortex at 1,000 rpm for 5 minutes. The final percent volume of organic solvent is 0.5% and the final concentration for test compound is 5 μM. Immediately transfer 50 μL of the spiked plasma suspension to a 96-well plate to act as T=0 control sample. The samples are treated the same as the samples after incubation. Place all remaining spiked plasma in the incubator for the duration of the study.
Place inserts open end up into the wells of the base plate. Add 500 μL of phosphate buffer (pH 7.4) to the buffer chamber, which is indicated by the white ring. Add 300 μL of spiked plasma sample into the sample chamber, which is indicated by the red ring. Cover the unit with gas permeable lid and incubate for 18 hours at 37° C. at 300 rpm with 5% CO2 on an orbital shaker in the CO2 incubator. At the end of incubation, remove lid and pipette 50 μL of post-dialysis samples from both buffer and plasma chambers into separated 96-well plate for analysis, respectively.
At the same time, the remaining spiked plasma sample in the plastic plate or separate plastic tube is incubated for 18 hours at 37° C. with 5% CO2 in the CO2 incubator. At T=18 hours, transfer 50 μL of the original spiked plasma suspension to the 96-well plate for analysis.
Add 50 μL of Human plasma to the buffer samples, and an equal volume of PBS to the collected plasma samples. Vortex the plate at 1,000 rpm for 2 minutes and add 400 μL of acetonitrile containing an appropriate internal standard (IS) to precipitate protein and release compound. Vortex at 1,000 rpm for 10 minutes. Centrifuge for 30 minutes at 4,000 rpm. Transfer 250 μl of the supernatant to new 96-well plates and centrifuge again (4,000 rpm, 30 minutes). Then transfer 100 μL of the supernatant to new 96-well plates for analysis. Add 100 μL of distilled water to each sample and vortex for 5 minutes at 1,000 rpm for analysis by LC-MS/MS. All compounds are tested in singlicate at 5 μM in human plasma.
All calculations are carried out using Microsoft Excel.
Calculate the percentage of unbound, percentage of bound and recovery of test compound as follows: […]

A short description of a further series: Hu Mic Clint. In kind it is in vitro ADME, human. The conditions noted are these: for microsomal CLint: human, microsomes.

Consider `Nc1nccn2c(C3CCC(CO)OC3)nc(-c3ccc(Oc4ccccc4)cc3F)c12` (single isomer, unassigned) [Compound 2, Trans-(5-(8-amino-1-(2-fluoro-4-phenoxyphenyl)imidazo[1,5-a]pyrazin-3-yl)tetrahydro-2H-pyran-2-yl)methanol], for which the “Rat Hep Clint” value in series [1] turned out to be 6.1 μL/min/10∧6 cells. In addition, the IC50 (usually the concentration that inhibits the measured activity by half) in series [2] came out at 0.0273 µM; in series [3] it was 0.0706 µM. The fraction unbound at 18 h, 5 μM in series [4] stood at 0.106. The microsomal CLint – broadly, the capacity of the preparation to metabolise the compound, expressed as a volume cleared per time – in the series “Hu Mic Clint” came out at 12.7 µL/min/mg.

For the molecule `Nc1nccn2c(C3CCC(CO)OC3)nc(-c3ccc(Oc4ccccc4)cc3F)c12` (single isomer, unassigned) [Compound 3, Trans-(5-(8-amino-1-(2-fluoro-4-phenoxyphenyl)imidazo[1,5-a]pyrazin-3-yl)tetrahydro-2H-pyran-2-yl)methanol], the “Rat Hep Clint” value in series [1] was found to be 8.8 μL/min/10∧6 cells. The “hPPB (fu %)” value in series [4] came to 11.9%. For the same molecule, the “Hu Mic Clint” value in “Hu Mic Clint” was 23.7 µL/min/mg.

`Nc1nccn2c(C3CCC(CO)OC3)nc(-c3ccc(Oc4ccccc4)c(F)c3F)c12` (single isomer, unassigned) [Compound 4, (5-(8-amino-1-(2,3-difluoro-4-phenoxyphenyl)imidazo[1,5-a]pyrazin-3-yl)tetrahydro-2H-pyran-2-yl)methanol]: the “Rat Hep Clint” value in series [1] was determined as 7.2 μL/min/10∧6 cells. Further, the IC50 came to 0.0188 µM in series [2] and 0.0842 µM in series [3]. The fraction unbound at 18 h, 5 μM in series [4] was found to be 0.088. The same molecule had a microsomal CLint in the series “Hu Mic Clint” of 7.44 µL/min/mg.

As to `Nc1nccn2c(C3CCC(CO)OC3)nc(-c3ccc(Oc4ccccc4)c(F)c3F)c12` (single isomer, unassigned) [Compound 5, (5-(8-amino-1-(2,3-difluoro-4-phenoxyphenyl)imidazo[1,5-a]pyrazin-3-yl)tetrahydro-2H-pyran-2-yl)methanol], the “Rat Hep Clint” value in series [1] is on record as 9.0 μL/min/10∧6 cells. In addition, the “hPPB (fu %)” value in series [4] was 9.0%. Further, the “Hu Mic Clint” value in “Hu Mic Clint” amounted to 13.0 µL/min/mg.

For the molecule `Nc1nccn2c(C3CCC(CO)OC3)nc(-c3ccc(Oc4cccc(F)c4F)cc3)c12` (single isomer, unassigned) [Compound 6, (5-(8-amino-1-(4-(2,3-difluorophenoxy)phenyl)imidazo[1,5-a]pyrazin-3-yl)tetrahydro-2H-pyran-2-yl)methanol], the “Rat Hep Clint” value in series [1] is 8.2 μL/min/10∧6 cells. Also, the IC50 turned out to be 0.0334 µM in series [2] and 0.0754 µM in series [3]. For the same molecule, the fraction unbound at 18 h, 5 μM in series [4] was determined as 0.075. In the series “Hu Mic Clint”, the microsomal CLint worked out at 8.8 µL/min/mg.

Take `Nc1nccn2c(C3CCC(CO)OC3)nc(-c3ccc(Oc4cccc(F)c4F)cc3)c12` (single isomer, unassigned) [Compound 7, (5-(8-amino-1-(4-(2,3-difluorophenoxy)phenyl)imidazo[1,5-a]pyrazin-3-yl)tetrahydro-2H-pyran-2-yl)methanol]: the “Rat Hep Clint” value in series [1] came to 4.9 μL/min/10∧6 cells. For the same molecule, the “hPPB (fu %)” value in series [4] was 7.3%. For the same molecule, in “Hu Mic Clint”, the “Hu Mic Clint” value is 13.3 µL/min/mg.

With `Nc1ncnn2c(C3CCC(CO)OC3)nc(-c3ccc(Oc4ccccc4)cc3F)c12` (single isomer, unassigned) [Compound 8, (5-(4-amino-5-(2-fluoro-4-phenoxyphenyl)imidazo[5,1-f][1,2,4]triazin-7-yl)tetrahydro-2H-pyran-2-yl)methanol], the “Rat Hep Clint” value in series [1] stood at 48.5 μL/min/10∧6 cells. Further, the fraction unbound at 18 h, 5 μM in series [4] is 0.093. For the same molecule, in “Hu Mic Clint”, the “Hu Mic Clint” value was determined as 41.3 µL/min/mg.

With `Nc1ncnn2c(C3CCC(CO)OC3)nc(-c3ccc(Oc4ccccc4)cc3F)c12` (single isomer, unassigned) [Compound 9, (5-(4-amino-5-(2-fluoro-4-phenoxyphenyl)imidazo[1,5-a][1,2,4]triazin-7-yl)tetrahydro-2H-pyran-2-yl)methanol], in series [1], the “Rat Hep Clint” value is given as 27.2 μL/min/10∧6 cells. Further, the “hPPB (fu %)” value in series [4] came to 5.8%. In addition, the “Hu Mic Clint” value in the series “Hu Mic Clint” was 34.3 µL/min/mg.

Take `Nc1ncnn2c(C3CCC(CO)OC3)nc(-c3ccc(Oc4ccccc4)cc3F)c12` (single isomer, unassigned) [Compound 10, Trans-(5-(4-amino-5-(2-fluoro-4-phenoxyphenyl)imidazo[5,1-f][1,2,4]triazin-7-yl)tetrahydro-2H-pyran-2-yl)methanol]: in series [1], the “Rat Hep Clint” value was determined as 17.1 μL/min/10∧6 cells. The IC50 stood at 0.06 µM in series [2] and 0.17 µM in series [3]. The “hPPB (fu %)” value in series [4] is recorded as 8.1%. Also, in “Hu Mic Clint”, the “Hu Mic Clint” value was 7.0 µL/min/mg.

In the case of `Nc1ncnn2c(C3CCC(CO)OC3)nc(-c3ccc(Oc4ccccc4)cc3F)c12` (single isomer, unassigned) [Compound 11, Trans-(5-(4-amino-5-(2-fluoro-4-phenoxyphenyl)imidazo[5,1-f][1,2,4]triazin-7-yl)tetrahydro-2H-pyran-2-yl)methanol], in series [1], the “Rat Hep Clint” value is given as 11.7 μL/min/10∧6 cells. In addition, the “hPPB (fu %)” value in series [4] is reported as 8.9%. In “Hu Mic Clint”, the “Hu Mic Clint” value was found to be 9.3 µL/min/mg.

As to `Nc1nccn2c(C3CCC(CO)OC3)nc(-c3ccc(Oc4ccccc4)cc3)c12` (stereo not shown) [Compound 1, (5-(8-amino-1-(4-phenoxyphenyl)imidazo[1,5-a]pyrazin-3-yl)tetrahydro-2H-pyran-2-yl)methanol], the “Rat Hep Clint” value in series [1] is recorded as 12.4 μL/min/10∧6 cells. The fraction unbound at 18 h, 5 μM in series [4] is 0.098. In the series “Hu Mic Clint”, this molecule gave a microsomal CLint of 44.9 µL/min/mg.

As to `Nc1ncnn2c(C3CCC(CO)OC3)nc(-c3ccc(Oc4ccccc4)c(F)c3F)c12` (stereo not shown) [Compound 12, (5-(4-amino-5-(2,3-difluoro-4-phenoxyphenyl)imidazo[1,5-f][1,2,4]triazin-7-yl)tetrahydro-2H-pyran-2-yl)methanol], the “Rat Hep Clint” value in series [1] turned out to be 46.8 μL/min/10∧6 cells. Moreover, the IC50 in series [2] turned out to be 0.0176 µM; in series [3] it was 0.0468 µM. For the same molecule, in series [4], the fraction unbound at 18 h, 5 μM came to 0.074. In the series “Hu Mic Clint”, this molecule showed a microsomal CLint of less than 3 µL/min/mg.

Values taken from US12624039B2, “BTK inhibitors” (DIZAL (JIANGSU) PHARMACEUTICAL CO., LTD., priority 2020, dated 2026).
